Results taken from US20110183980A1, “O-BENZYL NICOTINAMIDE ANALOGS AS MGLUR5 POSITIVE ALLOSTERIC MODULATORS” (priority 2009, published 2011).
Like-named read-outs stand apart in the source and are kept apart here.

Target: T1, rat mGluR5 (Rattus norvegicus, UniProt P31424)
T1 construct: expressed in transfected cells; host or cells: human embryonic kidney (HEK) cells
Test: Potentiation of glutamate response, Ca2+ fluorescence (FDSS) in HEK cells transfected with rat mGluR5
Format: cell-based
Method: Human embryonic kidney (HEK) cells transfected with rat mGluR5 were plated in clear bottom assay plates for assay in a Functional Drug Screening System (FDSS). The cells were loaded with a Ca^2+-sensitive fluorescent dye (e.g., Fluo-4), and the plates were washed and placed in the FDSS instrument. After establishment of a fluorescence baseline for twelve seconds, the compounds of the present invention were added to the cells, and the response in cells was measured. Five minutes later, an mGluR5 agonist (e.g., glutamate, 3,5-dihydroxyphenylglycine, or quisqualate) was added to the cells, and the response of the cells was measured. Potentiation of the agonist response of mGluR5 by the compounds in the present invention was observed as an increase in response to non-maximal concentrations of agonist (here, glutamate) in the presence of compound compared to the response to agonist in the absence of compound.
The above described assay operated in two modes. In the first mode, a range of concentrations of the present compounds were added to cells, followed by a single fixed concentration of agonist. If a compound acted as a potentiator, an EC50 value for potentiation and a maximum extent of potentiation by the compound at this concentration of agonist was determined by non-linear curve fitting. In the second mode, several fixed concentrations of the present compounds were added to various wells on a plate, followed by a range of concentrations of agonist for each concentration of present compound; the EC50 values for the agonist at each concentration of compound were determined by non-linear curve fitting. A decrease in the EC50 value of the agonist with increasing concentrations of the present compounds (a leftward shift of the agonist concentration-response curve) is an indication of the degree of mGluR5 potentiation at a given concentration of the present compound. An increase in the EC50 value of the agonist with increasing concentrations of the present compounds (a rightward shift of the agonist concentration-response curve) is an indication of the degree of mGluR5 antagonism at a given concentration of the present compound. The second mode also indicates whether the present compounds also affect the maximum response to mGluR5 to agonists.

[1] = Table 2, potentiation of mGluR5 response to glutamate, read-out: EC50
[2] = Table 1, potentiation of mGluR5 response to glutamate, read-out: EC50

T1 sequence (P31424 21-1203): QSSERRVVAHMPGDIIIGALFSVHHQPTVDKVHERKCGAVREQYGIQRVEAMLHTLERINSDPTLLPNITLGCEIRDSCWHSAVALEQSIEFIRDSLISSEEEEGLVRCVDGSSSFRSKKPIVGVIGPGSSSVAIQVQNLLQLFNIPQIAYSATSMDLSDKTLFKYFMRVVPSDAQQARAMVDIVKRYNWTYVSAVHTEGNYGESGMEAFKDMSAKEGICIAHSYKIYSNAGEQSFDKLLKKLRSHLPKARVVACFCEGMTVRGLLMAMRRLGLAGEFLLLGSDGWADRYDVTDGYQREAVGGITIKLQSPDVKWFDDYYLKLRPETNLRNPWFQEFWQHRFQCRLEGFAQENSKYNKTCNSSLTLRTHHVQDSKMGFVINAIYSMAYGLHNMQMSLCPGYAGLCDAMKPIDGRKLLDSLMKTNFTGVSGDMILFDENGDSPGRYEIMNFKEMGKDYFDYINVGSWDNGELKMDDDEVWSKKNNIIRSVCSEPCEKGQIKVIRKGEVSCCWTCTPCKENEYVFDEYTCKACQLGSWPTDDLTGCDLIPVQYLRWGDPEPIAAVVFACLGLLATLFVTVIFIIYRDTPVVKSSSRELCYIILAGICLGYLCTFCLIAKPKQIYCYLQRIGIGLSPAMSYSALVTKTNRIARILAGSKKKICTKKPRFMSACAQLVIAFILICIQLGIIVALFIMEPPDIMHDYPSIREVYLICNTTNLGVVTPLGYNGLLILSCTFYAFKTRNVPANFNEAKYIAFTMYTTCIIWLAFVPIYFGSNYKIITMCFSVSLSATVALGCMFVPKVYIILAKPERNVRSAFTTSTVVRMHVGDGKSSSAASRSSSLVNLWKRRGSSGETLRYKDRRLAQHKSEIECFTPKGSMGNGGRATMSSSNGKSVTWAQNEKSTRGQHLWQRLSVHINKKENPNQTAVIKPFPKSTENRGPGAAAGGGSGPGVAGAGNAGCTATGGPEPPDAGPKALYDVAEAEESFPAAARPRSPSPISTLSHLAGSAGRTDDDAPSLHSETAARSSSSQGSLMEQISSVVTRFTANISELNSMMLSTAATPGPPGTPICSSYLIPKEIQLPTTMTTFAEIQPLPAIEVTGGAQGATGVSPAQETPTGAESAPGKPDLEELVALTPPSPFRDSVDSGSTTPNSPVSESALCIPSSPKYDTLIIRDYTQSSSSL

| SMILES | EC50 [1] | further results |
| --- | --- | --- |
| C[C@@H](NC(=O)c1ccc(OCc2cccc(F)c2)nc1)C(C)(C)C | 0.0022 µM | – |
| C[C@@H](NC(=O)c1ccc(OCc2cccc(F)c2)nc1)C1CCC1 | 0.0066 µM | – |
| CC(C)[C@@H](C)NC(=O)c1ccc(OCc2cccc(F)c2)nc1 | 0.021 µM | – |
| CC1CCCCC1NC(=O)c1ccc(OCc2ccccc2)nc1 (stereo not drawn) | 0.036 µM | – |
| O=C(NC1C2CC3CC(C2)CC1C3)c1ccc(OCc2ccccc2)nc1 (stereo not drawn) | 0.039 µM | – |
| O=C(N[C@@H](C1CC1)C(F)(F)F)c1ccc(OCc2cccc(F)c2)nc1 | 0.1 µM | – |
| COc1cccc(COc2ccc(C(=O)N[C@H](C)C(C)(C)C)cn2)c1 | 0.12 µM | – |
| O=C(NCC1CCC1)c1ccc(OCc2ccccc2)nc1 | 0.13 µM | – |
| Cc1cc(OCc2cccc(F)c2)ncc1C(=O)N[C@H](C)C1CCCCC1 | 0.13 µM | – |
| C[C@@H](NC(=O)c1ccc(OCc2cccc(F)c2)nc1)C(C)(C)O | 0.15 µM | – |
| O=C(NC12CC3CC(CC(C3)C1)C2)c1ccc(OCc2ccccc2)nc1 | 0.18 µM | – |
| O=C(NC1CCCC1)c1ccc(OCc2ccccc2)nc1 | 0.18 µM | – |
| O=C(NC(C1CC1)C1CC1)c1ccc(OCc2cccc(F)c2)nc1 | 0.3 µM | – |
| C[C@@H](NC(=O)c1ccc(OCc2cccc(F)c2)nc1)C1CCOCC1 | 0.31 µM | – |
| C[C@@H](NC(=O)c1ccc(OCc2cccc(F)c2)nc1Cl)C(C)(C)C | 0.37 µM | – |
| Cc1cc(C(=O)N[C@H](C)C2CCCCC2)cnc1OCc1cccc(F)c1 | 0.49 µM | – |
| Cc1cc(OCc2ccncc2)ncc1C(=O)Nc1ccc(F)cc1F | 0.49 µM | – |
| O=C(Nc1ccccc1O)c1ccc(OCc2ccccc2)nc1 | 0.52 µM | – |
| C[C@@H](NC(=O)c1ccc(OCc2ccncc2)nc1)C(C)(C)C | 0.57 µM | – |
| Cc1cc(OCc2ccncc2)ncc1C(=O)N[C@H](C)C1CCCCC1 | 0.61 µM | – |
| C[C@H](NC(=O)c1ccc(OCc2cccc(F)c2)nc1)C(C)(C)O | 0.61 µM | – |
| CC(NC(=O)c1ccc(OCc2cccc(F)c2)nc1)C(C)(C)O (stereo not drawn) | 0.66 µM | – |
| Cc1cc(C(=O)Nc2ccc(F)cc2F)cnc1OCc1ccncc1 | 0.68 µM | – |
| Cc1cc(OCc2cccc(F)c2)ncc1C(=O)N[C@H](C)C(C)(C)C | 0.69 µM | – |
| Cc1cc(OCc2cccc(F)c2)ncc1C(=O)Nc1ccc(F)cc1F | 0.92 µM | – |
| Cc1cc(OCc2cccc(F)c2)ncc1C(=O)NCCC(C)(C)C | 0.96 µM | – |
| CC(NC(=O)c1ccc(OCc2cccc(F)c2)nc1)C(C)(C)CO (stereo not drawn) | 1 µM | – |

| SMILES | EC50 [1] | further results |
| --- | --- | --- |
| CC(C)(C)CC(C)(C)NC(=O)c1ccc(OCc2cccc(F)c2)nc1 | 1.1 µM | – |
| C[C@@H](NC(=O)c1cnc(OCc2cccc(F)c2)cc1C(F)(F)F)C(C)(C)C | 1.2 µM | – |
| Cc1cc(C(=O)NCCC(C)(C)C)cnc1OCc1cccc(F)c1 | 1.3 µM | – |
| CC[C@@H](C)NC(=O)c1ccc(OCc2cccc(F)c2)nc1 | 1.3 µM | – |
| C[C@@H](NC(=O)c1ccc(OCc2cccc(F)c2)nc1)C1CCOC(C)(C)C1 (stereo partly drawn) | 1.7 µM | – |
| Cc1cc(OCc2ccncc2)ncc1C(=O)NCCC(C)(C)C | 1.7 µM | – |
| O=C(NC1CC(O)(C(F)(F)F)C1)c1ccc(OCc2cccc(F)c2)nc1 (stereo not drawn) | 1.8 µM | – |
| C[C@@H](NC(=O)c1cnc(OCc2ccncc2)c(C#N)c1)C1CCCCC1 | 1.9 µM | – |
| COc1cc(C(=O)NCCC(C)(C)C)cnc1OCc1cccc(F)c1 | 1.9 µM | – |
| COC[C@@H](NC(=O)c1ccc(OCc2cccc(F)c2)nc1)C(C)(C)C | 1.9 µM | – |
| O=C(N[C@H]1CCCC[C@@H]1O)c1ccc(OCc2ccccc2)nc1 | 2.8 µM | – |
| COCC(C)NC(=O)c1ccc(OCc2cccc(F)c2)nc1 (stereo not drawn) | 3 µM | – |
| CC(C)(C)[C@@H](CO)NC(=O)c1ccc(OCc2cccc(F)c2)nc1 | 3.2 µM | – |
| COc1ccccc1NC(=O)c1ccc(OCc2ccccc2)nc1 | 3.4 µM | – |
| COc1ccc(F)cc1COc1ccc(C(=O)N[C@H](C)C(C)(C)C)cn1 | 3.5 µM | – |
| C[C@@H](NC(=O)c1cnc(OCc2ccncc2)c(Br)c1)C1CCCCC1 | 3.6 µM | – |
| Cc1cc(C(=O)N[C@H](C)C2CCCCC2)cnc1OCc1ccncc1 | 3.6 µM | – |
| CC(NC(=O)c1ccc(OCc2cccc(F)c2)nc1)C1CCCOC1 (stereo not drawn) | 3.7 µM | – |
| CC(C)(C)CCNC(=O)c1cnc(OCc2cccc(F)c2)c(C#N)c1 | 3.9 µM | – |
| CC(C)(C)CCNC(=O)c1cnc(OCc2ccncc2)c(Br)c1 | 3.9 µM | – |
| C[C@@H](NC(=O)c1cnc(OCc2ccncc2)cc1C(F)(F)F)C(C)(C)C | 3.9 µM | – |
| CC(COC(C)(C)C)NC(=O)c1ccc(OCc2cccc(F)c2)nc1 (stereo not drawn) | 4.2 µM | – |
| COc1ccc(COc2ccc(C(=O)N[C@H](C)C(C)(C)C)cn2)cc1F | 4.6 µM | – |
| COc1cc(F)cc(COc2ccc(C(=O)N[C@H](C)C(C)(C)C)cn2)c1 | 5.1 µM | – |
| COc1c(F)cccc1COc1ccc(C(=O)N[C@H](C)C(C)(C)C)cn1 | 5.2 µM | – |
| Cc1cc(C(=O)NCCC(C)(C)C)cnc1OCc1ccncc1 | 5.3 µM | – |
| COc1ccc(COc2ccc(C(=O)N[C@H](C)C(C)(C)C)cn2)cc1 | 5.4 µM | – |

| SMILES | EC50 [1] | further results |
| --- | --- | --- |
| CC(C)(C)CCNC(=O)c1ccc(OCc2cc(F)cc(Br)c2)nc1 | > 10 µM | – |
| Cc1cc(C(=O)Nc2ccc(F)cc2F)cnc1OCc1cccc(F)c1 | > 10 µM | – |
| C[C@@H](NC(=O)c1cnc(OCc2ccncc2)c(C(F)(F)F)c1)C1CCCCC1 | > 10 µM | – |
| CC(C)(C)CCNC(=O)c1cnc(OCc2ccncc2)c(C#N)c1 | > 10 µM | – |
| C[C@@H](NC(=O)c1cnc(OCc2cccc(F)c2)c(C(F)(F)F)c1)C1CCCCC1 | > 10 µM | – |
| COc1nc(OCc2cccc(F)c2)ccc1C(=O)NCCC(C)(C)C | > 10 µM | – |
| COc1nc(OCc2cccc(F)c2)ccc1C(=O)N[C@H](C)C1CCCCC1 | > 10 µM | – |
| C[C@H](CN1CCC(F)(F)C1)NC(=O)c1ccc(OCc2cccc(F)c2)nc1 | > 10 µM | – |
| C[C@H](CN1CCC(C(F)(F)F)CC1)NC(=O)c1ccc(OCc2cccc(F)c2)nc1 | > 10 µM | – |
| COc1ccccc1COc1ccc(C(=O)N[C@H](C)C(C)(C)C)cn1 | > 10 µM | – |
| CC(NC(=O)c1ccc(OCc2cccc(F)c2)nc1)C1CCCCO1 (stereo not drawn) | > 10 µM | – |
| O=C(NC(c1ccccn1)C(F)(F)F)c1ccc(OCc2cccc(F)c2)nc1 (stereo not drawn) | > 10 µM | – |
| CC1(CCNC(=O)c2ccc(OCc3cccc(F)c3)nc2)COC1 | > 10 µM | – |
| CC(C)(C)OCCNC(=O)c1ccc(OCc2cccc(F)c2)nc1 | > 10 µM | – |
| CC(Oc1ccc(C(=O)N[C@H](C)C(C)(C)C)cn1)c1cccc(F)c1 (stereo partly drawn) | > 10 µM | – |
| CC1(O)CC(NC(=O)c2ccc(OCc3cccc(F)c3)nc2)C1 (stereo not drawn) | > 10 µM | – |
| C[C@]1(O)CCC[C@@H]1NC(=O)c1ccc(OCc2cccc(F)c2)nc1 | > 10 µM | – |
| C[C@@H](NC(=O)c1ccc(OCc2cccc(F)c2)[nH]c1=O)C(C)(C)C | > 10 µM | – |
| C[C@H](NC(=O)c1ccc(OCc2cccc(F)c2)nc1Cl)C(C)(C)C | > 10 µM | – |
| C[C@H](NC(=O)c1ccc(OCc2ccccc2)nc1)C1CCCCC1 [(S)-6-(benzyloxy)-N-(1-cyclohexylethyl)nicotinamide] | – | EC50 (read-out: EC50 as an mGluR5 potentiator): > 10 µM |
| C[C@@H](NC(=O)c1ccc(OCc2ccccc2)nc1)C1CCCCC1 [Example 1.2a.2, (R)-6-(Benzyloxy)-N-(1-cyclohexylethyl)nicotinamide] | – | Glu max (mGluR5 expressing cell line): 91%; EC50 (mGluR5 expressing cell line, potentiation, read-out: EC50): 0.04 µM |
| O=C(Nc1ccccn1)c1ccc(OCc2ccccc2)nc1 [Example 1.2a.4] | – | EC50 [2]: 0.41 µM |
| O=C(Nc1ccc(F)cc1F)c1ccc(OCc2ccccc2)nc1 [Example 1.2a.5] | – | EC50 [2]: 0.14 µM |
| CC(C)(C)NC(=O)c1ccc(OCc2ccccc2)nc1 [Example 1.2a.6] | – | EC50 [2]: 0.23 µM |
| O=C(NCC1CC1)c1ccc(OCc2ccccc2)nc1 [Example 1.2a.7] | – | EC50 [2]: 0.45 µM |
| CC(C)(C)CCNC(=O)c1ccc(OCc2ccccc2)nc1 [Example 1.2a.8] | – | EC50 [2]: 0.092 µM |
